The values that follow come from patent publication US10696678B2, “Kinase inhibitor, and preparing method and pharmaceutical use thereof” (GAN & LEE PHARMACEUTICALS, priority 2015, dated 2020).

Data set [1] relates to human breast cancer cell line MDB-MA-231. As to the kind of experiment: Proliferation inhibition assay on human breast cancer cell line MDA-MB-231 (DAPI staining, In Cell Analyzer). It counts as cell-based. As to conditions: MDA-MB-231, read-out: IC50 for inhibition of proliferation of human breast cancer cell line MDB-MA-231, 72 h incubation. The protocol:
Experimental Preparation:
1. MDA-MB-231 cells were seeded at 4000 cells/100 ul/well to a 96-well plate with black transparent bottom, and cultured overnight at 37° C.;
3. Fixation: the cell plate was taken, medium was removed, and 50 μl of 4% paraformaldehyde was added to each well and fixed 10 min;
4.50 μl 0.1 M glycine was added to neutralize for 10 min;
6. Permeabilization: 50 ul of 0.2% TritonX-100 was added to each well and permeabilized at room temperature for 10 min;
8.5 mg/mL DAPI stock solution was diluted at 1:5000 (final concentration 1 μg/ml) and the cells were stained at room temperature for 20 min.
10. The plate was scanned and analyzed on In cell analyser.

Another data set addresses CDK1/A2 (Homo sapiens (Human), UniProt P06493). As to the kind of experiment: CDKs inhibition assay (ADP-Glo Kinase Assay), CDK1. The settings on record: read-out: IC50 (nM) CDK1/A2.
Another data set deals with CDK4/D3 (Homo sapiens (Human), UniProt P11802). Description: CDKs inhibition assay (ADP-Glo Kinase Assay), CDK4. The settings on record: for selectivity for CDK4/6 (over CDK1) compared with the control compound LY2835219: in words; for Ratio IC50 (CDK4)/IC50 (CDK1): smaller value = better selectivity for CDK4. For orientation: In ADP-Glo the light output rises with the ADP produced.

For another data set, the target named is CDK6/D3 (Homo sapiens (Human), UniProt Q00534). Description: CDKs inhibition assay (ADP-Glo Kinase Assay), CDK6. The settings on record: for Ratio IC50 (CDK6)/IC50 (CDK1): smaller value = better selectivity for CDK6.
Data set [2] can be described thus: Pharmacokinetic study in rats (intragastric). The format is in vivo, SD rats. The settings on record: 5 mg/kg. The protocol: (§1) 2.3 Preparation of Test Compounds
(§2) 2.4 Test Drug Administration
(§3) 3. Experimental Operation
Whole blood was anticoagulated with EDTA-K2, centrifuged to remove the supernatant, and cryopreserved at −20° C. until being analyzed.

A short description of data set [3]: Pharmacokinetic study in mice (intragastric and intravenous). It counts as in vivo, ICR mice. As to conditions: for AUC: read-out: Area under the curve AUC; for MRT: read-out: Retention time MRT. The protocol:
as §1
An appropriate amount of sample was weighed, then 0.1% hydroxyethyl cellulose/0.5% Tween 80 was added to final volume to obtain a solution of 0.5 mg/ml for intragastrical administration.
as §2
Male ICR mice, 3 for each test compound, were intragastrically administered test drugs at a dose of 5 mg/kg and a drug volume of 10 ml/kg after an overnight fast.
Male ICR mice, 3 for each test compound, were administered by intravenous injection test drugs at a dose of 2 mg/kg and a drug volume of 10 ml/kg after an overnight fast.
as §3
The carotid artery of the animal was catheterized and blood sample was removed prior to dosing and at 0.25, 0.5, 1, 2, 4, 8, 12 and 24 hours after dosing for intragastrical administration group. Whole blood was anticoagulated with EDTA-K2, centrifuged to remove the supernatant, and cryopreserved at −20° C. until being analyzed. The carotid artery of the animal was catheterized and blood sample was removed prior to dosing and at 0.083, 0.25, 0.5, 1, 2, 4, 8, 12 and 24 hours after dosing for i.v. administration group. Plasma sample treatment was the same as intragastrical administration group.

The mark [4] stands for this setting: male, ICR, mouse, plasma, iv, i.v. (2 mg/kg).
[5] abbreviates: male, ICR, mouse, plasma, po, i.g. (5 mg/kg).

Like-named read-outs stand apart in the source and are kept apart here.

For the molecule `Cc1nc(Nc2ncc(F)c(-c3cc(F)c4nc5n(c4c3)C(C)(C)CC5)n2)ccc1CC1CCNCC1` [Example 30, 5-Fluoro-4-(5-fluoro-1,1-dimethyl-2,3-dihydro-1H-benzo[d]pyrrolo[1,2-a]imidazol-7-yl)-N-(6-methyl-5-(piperidine-4-ylmethyl)pyridin-2-yl)pyrimidin-2-amine], the IC50 in data set [1] is 300 nM. The IC50 on CDK1/A2 turned out to be 744 nM. Besides, at CDK4/D3, the IC50 came to 1.2 nM, the “selectivity for CDK4/6 (over CDK1) compared with the control compound LY2835219” value (shortened to “selectivity for CDK4/6 (over CDK1)”) was “better selectivity for CDK4/6 than the control compound” and the “Ratio IC50 (CDK4)/IC50 (CDK1)” value is on record as 0.002. Further, on CDK6/D3, the IC50 was found to be 12.2 nM and the “Ratio IC50 (CDK6)/IC50 (CDK1)” value amounted to 0.016.
`CN1CCN(c2ccc(Nc3ncc(F)c(-c4cc(F)c5nc6n(c5c4)C(C)(C)CC6)n3)nc2)CC1` [Example 43, 5-Fluoro-4-(5-fluoro-1,1-dimethyl-2,3-dihydro-1H-benzo[d]pyrrolo[1,2-a]imidazol-7-yl)-N-(5-(4-methylpiperazin-1-yl)pyridin-2-yl)pyrimidin-2-amine]: the IC50 in data set [1] turned out to be 58 nM; on CDK1/A2, 732 nM; against CDK4/D3, 13 nM; against CDK6/D3 it was 0.3 nM. Also, the “selectivity for CDK4/6 (over CDK1)” value on CDK4/D3 is given as “better selectivity for CDK4/6 than the control compound”. Moreover, at CDK4/D3, the “Ratio IC50 (CDK4)/IC50 (CDK1)” value is 0.018. At CDK6/D3, the “Ratio IC50 (CDK6)/IC50 (CDK1)” value worked out at 0.0004.
As to `CC1CN(c2ccc(Nc3ncc(F)c(-c4cc(F)c5nc6n(c5c4)C(C)(C)CC6)n3)nc2)CC(C)N1` (centres unmarked) [Example 74, N-(5-(3,5-Dimethylpiperazin-1-yl)pyridin-2-yl)-5-fluoro-4-(5-fluoro-1,1-dimethyl-2,3-dihydro-1H-benzo[d]pyrrolo[1,2-a]imidazol-7-yl)pyrimidin-2-amine], in data set [1], the IC50 stood at 174 nM. The IC50 at CDK1/A2 is 94.8 nM. Also, at CDK4/D3, the IC50 is 0.28 nM, the “selectivity for CDK4/6 (over CDK1)” value is “better selectivity for CDK4/6 than the control compound” and the “Ratio IC50 (CDK4)/IC50 (CDK1)” value was determined as 0.003. In addition, at CDK6/D3, the IC50 came to 0.6 nM and the “Ratio IC50 (CDK6)/IC50 (CDK1)” value is on record as 0.006.
The term AUC denotes concentration integrated over time. Broadly, the MRT is a mean duration of stay, worked out from the concentration-time curve. In general, bioavailability refers to dose-corrected exposure relative to a reference, in per cent. As for `CCN1CCN(Cc2ccc(Nc3ncc(F)c(-c4cc(F)c5nc(C)n(C(C)C)c5c4)n3)nc2)CC1` [LY2835219], the “Area under the curve AUC” value in data set [2] was 3275 ± 731 ng·h/mL. For the same molecule, the “Apparent volume of distribution Vz/F” value in data set [3] (i.v. (2 mg/kg)) turned out to be 7.21 ± 1.08 L/kg. Moreover, the AUC amounted to 674 ± 82.1 ng·h/mL in data set [3] (setting [4]) and 756 ± 34 ng·h/mL in data set [3] (setting [5]). Moreover, the MRT in data set [3] (setting [4]) came to 1.64 ± 0.17 h; in data set [3] (setting [5]), 3.08 ± 0.02 h. Moreover, the bioavailability in data set [3] (male, ICR, mouse, plasma, oral, i.g. (5 mg/kg) vs i.v. (2 mg/kg), read-out: Bioavailability F) was determined as 45.1%. The Vd/F in data set [3] (male, ICR, mouse, plasma, po, i.g. (5 mg/kg), read-out: Apparent volume of distribution Vz/F) worked out at 16.1 ± 0.963 L/kg.
